Measured values taken from paper PMC6959545 (European journal of medicinal chemistry, 2013).

Tests used:
human TRPV1 [1] = target: T1, human TRPV1 (Homo sapiens, UniProt Q8NER1); experiment: hTRPV1 antagonism of capsaicin; type: cell-based; details: for fold less potent than 12, CAP antagonism: compared with 2-pentyloxy derivative 12; for fold less potent than 11, CAP antagonism: compared with 2-butoxy derivative 11
mice (formalin test) = experiment: formalin test in mice, oral administration; type: in vivo
human TRPV1 [2] = target: T1, human TRPV1; experiment: hTRPV1 antagonism of pH activation, FLIPR; type: cell-based; details: compound 1 vs lead 2

T1 sequence (Q8NER1 whole entry): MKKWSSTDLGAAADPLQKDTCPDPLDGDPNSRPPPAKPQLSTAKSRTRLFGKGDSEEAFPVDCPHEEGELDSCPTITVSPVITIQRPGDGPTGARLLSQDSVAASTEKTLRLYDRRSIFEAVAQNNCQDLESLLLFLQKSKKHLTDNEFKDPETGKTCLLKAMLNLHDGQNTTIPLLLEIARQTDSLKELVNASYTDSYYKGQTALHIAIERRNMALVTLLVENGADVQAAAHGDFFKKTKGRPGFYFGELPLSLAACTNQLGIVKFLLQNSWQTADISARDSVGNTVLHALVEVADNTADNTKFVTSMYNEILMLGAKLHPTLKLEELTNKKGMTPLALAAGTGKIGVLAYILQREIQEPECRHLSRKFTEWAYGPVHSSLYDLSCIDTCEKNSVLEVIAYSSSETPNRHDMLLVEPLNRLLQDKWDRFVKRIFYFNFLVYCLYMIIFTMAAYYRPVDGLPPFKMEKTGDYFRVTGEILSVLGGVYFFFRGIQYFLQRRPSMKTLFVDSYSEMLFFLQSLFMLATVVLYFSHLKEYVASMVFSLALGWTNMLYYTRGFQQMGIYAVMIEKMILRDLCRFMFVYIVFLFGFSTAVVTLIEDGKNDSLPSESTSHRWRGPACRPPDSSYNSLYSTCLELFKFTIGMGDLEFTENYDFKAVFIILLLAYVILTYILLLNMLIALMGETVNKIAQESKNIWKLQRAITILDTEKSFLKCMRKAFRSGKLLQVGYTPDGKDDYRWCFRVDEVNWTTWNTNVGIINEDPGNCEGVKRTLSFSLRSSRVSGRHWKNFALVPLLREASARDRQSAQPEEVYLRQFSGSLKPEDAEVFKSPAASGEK

CC/C=C\COc1nc(C(F)(F)F)ccc1CNC(=O)C(C)c1ccc(NS(C)(=O)=O)c(F)c1 (stereo not shown) [Compound 15, (Z)-N-((2-(Pent-2-en-1-yloxy)-6-(trifluoromethyl)pyridin-3-yl)methyl)-2-(3-fluoro-4-(methylsulfonamido)phenyl)propanamide]
fold less potent than 12, CAP antagonism (human TRPV1 [1]): ~1.5 fold

CC(C(=O)NCc1ccc(C(F)(F)F)nc1OCc1ccccc1)c1ccc(NS(C)(=O)=O)c(F)c1 (stereo not shown) [Compound 53, N-((2-Benzyloxy-6-(trifluoromethyl)pyridin-3-yl)methyl)-(3-fluoro-4-(methylsulfonamido)phenyl)propanamide]
analgesic activity in the formalin test (mice (formalin test)): strong analgesic activity

C/C=C\COc1nc(C(F)(F)F)ccc1CNC(=O)C(C)c1ccc(NS(C)(=O)=O)c(F)c1 (stereo not shown) [Compound 14, (Z)-N-((2-(But-2-en-1-yloxy)-6-(trifluoromethyl)pyridin-3-yl)methyl)-2-(3-fluoro-4-(methylsulfonamido)phenyl)propanamide]
fold less potent than 11, CAP antagonism (human TRPV1 [1]): ca. 5 fold

CC1CCN(c2nc(C(F)(F)F)ccc2CNC(=O)C(C)c2ccc(NS(C)(=O)=O)c(F)c2)CC1 (stereo not shown) [Compound 1, reference compound]
fold better than precedent lead 2, pH antagonism (human TRPV1 [2]): 230 fold | fold better than precedent lead 2, CAP antagonism (human TRPV1 [1]; compound 1 vs lead 2): 150 fold

CCOCCOc1nc(C(F)(F)F)ccc1CNC(=O)C(C)c1ccc(NS(C)(=O)=O)c(F)c1 (stereo not shown) [Compound 17, N-((2-(2-Ethoxyethoxy)-6-(trifluoromethyl)pyridin-3-yl)methyl)-2-(3-fluoro-4-(methylsulfonamido)phenyl)propanamide]
fold less potent than 12, CAP antagonism (human TRPV1 [1]): 70 fold

COCCCOc1nc(C(F)(F)F)ccc1CNC(=O)C(C)c1ccc(NS(C)(=O)=O)c(F)c1 (stereo not shown) [Compound 18, N-((2-(3-Methoxypropoxy)-6-(trifluoromethyl)pyridin-3-yl)methyl)-2-(3-fluoro-4-(methylsulfonamido)phenyl)propanamide]
fold less potent than 12, CAP antagonism (human TRPV1 [1]): 22 fold

COCCOc1nc(C(F)(F)F)ccc1CNC(=O)C(C)c1ccc(NS(C)(=O)=O)c(F)c1 (stereo not shown) [Compound 16, N-((2-(2-Methoxyethoxy)-6-(trifluoromethyl)pyridin-3-yl)methyl)-2-(3-fluoro-4-(methylsulfonamido)phenyl)propanamide]
fold less potent than 11, CAP antagonism (human TRPV1 [1]): 160 fold

CC(C)COc1nc(C(F)(F)F)ccc1CNC(=O)C(C)c1ccc(NS(C)(=O)=O)c(F)c1 (stereo not shown) [Compound 22, N-((2-Isobutoxy-6-(trifluoromethyl)pyridin-3-yl)methyl)-2-(3-fluoro-4-(methylsulfonamido)phenyl)propanamide]
analgesic activity in the formalin test (mice (formalin test)): strong analgesic activity

CCOCCCOc1nc(C(F)(F)F)ccc1CNC(=O)C(C)c1ccc(NS(C)(=O)=O)c(F)c1 (stereo not shown) [Compound 19, N-((2-(3-Ethoxypropoxy)-6-(trifluoromethyl)pyridin-3-yl)methyl)-2-(3-fluoro-4-(methylsulfonamido)phenyl)propanamide]
fold less potent than 13, CAP antagonism (human TRPV1 [1]; compared with 2-hexyloxy derivative 13): 20 fold
